Tests used:
[1] = test system: bedstraw; test: Test B pre/postemergence bedstraw; assay type: in vivo, Galium aparine
Procedure, shortened: (§1)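 Test chemicals in a non-phytotoxic solvent mixture with surfactant were sprayed preemergence onto planted seeds and postemergence onto plants 2 to 18 cm tall (1- to 4-leaf stage). After twelve to sixteen days in a greenhouse, injury was visually rated against untreated controls from 0 (no effect) to 10 (complete control).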

[2] = test system: blackgrass; test: Test B pre/postemergence blackgrass; assay type: in vivo, Alopecurus myosuroides
Procedure, shortened: as §1

[3] = test system: surinam grass; test: Test B pre/postemergence surinam grass; assay type: in vivo, Brachiaria decumbens
Procedure, shortened: as §1

[4] = test system: corn; test: Test B pre/postemergence corn; assay type: in vivo, Zea mays
Procedure, shortened: as §1

[5] = test system: crabgrass; test: Test B pre/postemergence crabgrass; assay type: in vivo, Digitaria sanguinalis
Procedure, shortened: as §1

[6] = test system: giant foxtail; test: Test B pre/postemergence giant foxtail; assay type: in vivo, Setaria faberii
Procedure, shortened: as §1

[7] = test system: rape; test: Test B pre/postemergence rape; assay type: in vivo, Brassica napus
Procedure, shortened: as §1

[8] = test system: sugar beet; test: Test B pre/postemergence sugar beet; assay type: in vivo, Beta vulgaris
Procedure, shortened: as §1

[9] = test system: velvetleaf; test: Test B pre/postemergence velvetleaf; assay type: in vivo, Abutilon theophrasti
Procedure, shortened: as §1

[10] = test system: wheat; test: Test B pre/postemergence wheat; assay type: in vivo, Triticum aestivum
Procedure, shortened: as §1

[11] = test system: wild oat; test: Test B pre/postemergence wild oat; assay type: in vivo, Avena fatua
Procedure, shortened: as §1

[12] = test system: purple nutsedge; test: Test B pre/postemergence purple nutsedge; assay type: in vivo, Cyperus rotundus
Procedure, shortened: as §1

[13] = test system: rice; test: Test B flood test rice; assay type: in vivo, Oryza sativa
Procedure, shortened: (§2)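 Flood test on plants grown to the 2-leaf stage; treated plants kept in greenhouse twelve to sixteen days, then visually rated against controls on a 0 (no effect) to 10 (complete control) scale.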

[14] = test system: smallflower flatsedge; test: Test B flood test smallflower flatsedge; assay type: in vivo, Cyperus difformis
Procedure, shortened: as §2

[15] = test system: duck salad; test: Test B flood test duck salad; assay type: in vivo, Heteranthera limosa
Procedure, shortened: as §2

[16] = test system: bamyardgrass; test: Test B flood test barnyardgrass; assay type: in vivo, Echinochloa crus-galli
Procedure, shortened: as §2

[17] = Postemergence, Rate 62 g/ha, scale 0 to 10, 0 is no effect, 10 is complete control
[18] = Postemergence, Rate 250 g/ha, scale 0 to 10, 0 no effect, 10 complete control
[19] = Preemergence, Rate 62 g/ha, scale 0 to 10 (0 no effect, 10 complete control)
[20] = Preemergence, Rate 125 g/ha, scale 0 to 10 (0 no effect, 10 complete control)
[21] = Preemergence, Rate 250 g/ha, scale of 0 to 10 where 0 is no effect and 10 is complete control
[22] = Preemergence, Rate 500 g/ha, scale 0 (no effect) to 10 (complete control)
[23] = Rate 125 g/ha, Postemergence, scale 0 to 10, 0 no effect, 10 complete control
[24] = Rate 500 g/ha, Postemergence, scale 0 to 10, 0 no effect, 10 complete control
[25] = Rate 62 g/ha, headed Pre-emergence (flood test species), scale 0 to 10 (0 no effect, 10 complete control)
[26] = Rate 125 g/ha, Pre-emergence, flood test species, scale 0 to 10 where 0 is no effect and 10 is complete control
[27] = Rate 250 g/ha, headed Pre-emergence (flood test species), scale 0 to 10 (0 no effect, 10 complete control)
[28] = Rate 500 g/ha, headed Pre-emergence (flood test species), scale 0 to 10 (0 no effect, 10 complete control)

CCN(Cc1ccccc1)C(=O)n1oc(=O)n(-c2ccccc2C)c1=O [Compound 71]
0: Bedstraw plant response rating [1, 17] | Bedstraw plant response rating [1, 18] | Bedstraw plant response rating [1, 19] | Plant response rating, Bedstraw [1, 20] | Plant response rating, Bedstraw [1, 21] | Bedstraw plant response rating [1, 22] | Bedstraw plant response rating [1, 23] | Bedstraw plant response rating [1, 24] | Blackgrass plant response rating [2, 17] | Blackgrass plant response rating [2, 18] | Blackgrass plant response rating [2, 19] | Plant response rating, Blackgrass [2, 20] | Plant response rating, Blackgrass [2, 21] | Blackgrass plant response rating [2, 22] | Blackgrass plant response rating [2, 23] | Blackgrass plant response rating [2, 24] | B. signalgrass plant response rating [3, 17] | B. signalgrass plant response rating [3, 18] | B. signalgrass plant response rating [3, 19] | Plant response rating, B. signalgrass [3, 20] | Plant response rating, B. signalgrass [3, 21] | B. signalgrass plant response rating [3, 22] | B. signalgrass plant response rating [3, 23] | B. signalgrass plant response rating ([3]; Rate 500 g/ha, Postemergence, scale of 0 to 10 where 0 is no effect and 10 is complete control) | Corn plant response rating [4, 17] | Corn plant response rating [4, 18] | Corn plant response rating [4, 19] | Plant response rating, Corn [4, 20] | Plant response rating, Corn [4, 21] | Corn plant response rating [4, 22] | Corn plant response rating [4, 23] | Corn plant response rating [4, 24] | Crabgrass plant response rating [5, 17] | Crabgrass plant response rating [5, 18] | Crabgrass plant response rating [5, 19] | Plant response rating, Crabgrass [5, 20] | Plant response rating, Crabgrass [5, 21] | Crabgrass plant response rating [5, 22] | Crabgrass plant response rating [5, 23] | Crabgrass plant response rating [5, 24] | Giant foxtail plant response rating [6, 17] | Giant foxtail plant response rating [6, 18] | Giant foxtail plant response rating [6, 19] | Plant response rating, Giant foxtail [6, 20] | Plant response rating, Giant foxtail [6, 21] | Giant foxtail plant response rating [6, 22] | Giant foxtail plant response rating [6, 23] | Giant foxtail plant response rating [6, 24] | Rape plant response rating [7, 17] | Rape plant response rating [7, 18] | Rape plant response rating [7, 19] | Plant response rating, Rape [7, 20] | Plant response rating, Rape [7, 21] | Rape plant response rating [7, 22] | Rape plant response rating [7, 23] | Rape plant response rating [7, 24] | Sugarbeets plant response rating [8, 17] | Sugarbeets plant response rating [8, 18] | Sugarbeets plant response rating [8, 19] | Plant response rating, Sugarbeets [8, 20] | Plant response rating, Sugarbeets [8, 21] | Sugarbeets plant response rating [8, 22] | Sugarbeets plant response rating [8, 23] | Sugarbeets plant response rating [8, 24] | Velvetleaf plant response rating [9, 17] | Velvetleaf plant response rating [9, 18] | Velvetleaf plant response rating [9, 19] | Plant response rating, Velvetleaf [9, 20] | Plant response rating, Velvetleaf [9, 21] | Velvetleaf plant response rating [9, 22] | Velvetleaf plant response rating [9, 23] | Velvetleaf plant response rating [9, 24] | Wheat plant response rating [10, 17] | Wheat plant response rating [10, 18] | Wheat plant response rating [10, 19] | Plant response rating, Wheat [10, 20] | Plant response rating, Wheat [10, 21] | Wheat plant response rating [10, 22] | Wheat plant response rating [10, 23] | Wheat plant response rating [10, 24] | Wild oats plant response rating [11, 17] | Wild oats plant response rating [11, 18] | Wild oats plant response rating [11, 19] | Plant response rating, Wild oats [11, 20] | Plant response rating, Wild oats [11, 21] | Wild oats plant response rating [11, 22] | Wild oats plant response rating [11, 23] | Wild oats plant response rating [11, 24] | Nutsedge plant response rating [12, 17] | Nutsedge plant response rating [12, 18] | Nutsedge plant response rating [12, 19] | Plant response rating, Nutsedge [12, 20] | Plant response rating, Nutsedge [12, 21] | Nutsedge plant response rating [12, 22] | Nutsedge plant response rating [12, 23] | Nutsedge plant response rating [12, 24] | Rice plant response rating [13, 25] | Rice plant response rating [13, 26] | Rice plant response rating [13, 27] | Plant response rating, Rice [13, 28] | S. Flatsedge plant response rating [14, 25] | S. Flatsedge plant response rating [14, 26] | S. Flatsedge plant response rating [14, 27] | Plant response rating, S. Flatsedge [14, 28] | Ducksalad plant response rating [15, 25] | Ducksalad plant response rating [15, 26] | Ducksalad plant response rating [15, 27] | Plant response rating, Ducksalad [15, 28] | Barnyardgrass plant response rating [16, 25] | Barnyardgrass plant response rating [16, 26] | Barnyardgrass plant response rating [16, 27] | Plant response rating, Barnyardgrass [16, 28]

— patent US6737383B1, “Herbicidal oxadiazolidines” (priority 1999, dated 2004)
